# Laboratory results as given in patent US12637445B2, “KIF18A inhibitors” (AMGEN INC., priority 2019, dated 2026).
# pIC50: −log10 of the molar value.
# Molecular target: T1, Recombinant human KIF18A (1-467 His-tagged) protein (Homo sapiens, UniProt Q8NI77)
# T1 construct: Recombinant human KIF18A (1-467 His-tagged) protein; His
# Test: KIF18A Enzyme Assay (microtubule-stimulated ATPase activity, ADP-Glo)
# Format: biochemical
# Conditions: 30 nM KIF18A, 30 μg/mL pig microtubules, 75 μM ATP, ADP-Glo luminescence
# Description: KIF18A Enzyme Assay: Microtubule-stimulated ATPase activity assay is used to measure KIF18A enzyme activity after treatment with compound. Compounds were 2-fold serially diluted in DMSO (Sigma Inc) over 22-point concentration range. Recombinant human KIF18A (1-467 His-tagged) protein was expressed using a baculovirus system and purified by affinity chromatography by Amgen Inc. Concentrations of KIF18A protein, microtubules (MT), and ATP in the reaction were optimized for standardized homogenous enzyme assay using ADP-Glo™ Kinase/ATPase Assay Kit (Promega Inc). The assay measures ADP formed from the ATPase reaction. Prepare reaction buffer [(15 mM Tris, pH 7.5 (Teknova Inc), 10 mM MgCl2 (IT Baker Inc), 0.01% Pluronic F-68 (Life Technologies Inc), 1 μM Taxol (Cytoskeleton Inc), and 30 μg/mL pig microtubules (Cytoskeleton Inc)]. Add compound and KIF18A protein (30 nM) to prepared reaction buffer and incubated for 15 minutes at room temperature, next add ATP (at Kin, 75 μM) to the reaction mixture and incubated for an additional 15 minutes at room temperature. Mix 5 μl of ADP-Glor™ Reagent and 2.5 μl of the reaction mixture and incubate for 40 minutes at room temperature. Add 10 μl ADP-Glorh Detection Reagent and incubate for 40 minutes at room temperature. Read luminescence using EnVision microplate reader with ultra-luminescence module (Perkin Elmer Inc). Concentration-response curve-fitting and IC50 determination was performed using Genedata Screener Software (Standard 15.0.1, Genedata Inc) with a four-parameter logistic regression fit model.
# T1 sequence (Q8NI77 1-467): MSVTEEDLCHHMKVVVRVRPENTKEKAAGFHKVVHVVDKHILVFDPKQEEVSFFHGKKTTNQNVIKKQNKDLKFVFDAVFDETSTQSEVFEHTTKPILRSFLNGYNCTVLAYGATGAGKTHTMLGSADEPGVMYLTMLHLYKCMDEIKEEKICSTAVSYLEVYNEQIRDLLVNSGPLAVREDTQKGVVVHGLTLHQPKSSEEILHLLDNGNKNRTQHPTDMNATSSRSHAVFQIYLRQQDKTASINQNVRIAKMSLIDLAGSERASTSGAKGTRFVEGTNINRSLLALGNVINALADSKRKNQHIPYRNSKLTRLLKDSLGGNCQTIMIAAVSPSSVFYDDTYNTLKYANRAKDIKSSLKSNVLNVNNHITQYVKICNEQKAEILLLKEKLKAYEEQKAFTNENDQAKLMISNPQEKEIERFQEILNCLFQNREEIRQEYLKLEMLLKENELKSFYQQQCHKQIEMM
# T1 sequence (P02550 whole entry partner): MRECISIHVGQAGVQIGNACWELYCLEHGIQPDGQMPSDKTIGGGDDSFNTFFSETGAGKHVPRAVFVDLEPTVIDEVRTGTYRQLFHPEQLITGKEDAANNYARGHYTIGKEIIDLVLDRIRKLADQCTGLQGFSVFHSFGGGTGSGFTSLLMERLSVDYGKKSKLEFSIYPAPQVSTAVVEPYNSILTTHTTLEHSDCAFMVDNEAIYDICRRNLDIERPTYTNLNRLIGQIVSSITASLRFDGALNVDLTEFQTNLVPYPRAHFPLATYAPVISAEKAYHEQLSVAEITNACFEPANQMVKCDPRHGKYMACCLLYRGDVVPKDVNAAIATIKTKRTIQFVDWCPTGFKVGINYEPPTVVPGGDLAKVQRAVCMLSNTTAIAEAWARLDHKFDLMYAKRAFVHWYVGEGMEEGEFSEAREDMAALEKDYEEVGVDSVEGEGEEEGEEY
# T1 sequence (P02554 whole entry partner): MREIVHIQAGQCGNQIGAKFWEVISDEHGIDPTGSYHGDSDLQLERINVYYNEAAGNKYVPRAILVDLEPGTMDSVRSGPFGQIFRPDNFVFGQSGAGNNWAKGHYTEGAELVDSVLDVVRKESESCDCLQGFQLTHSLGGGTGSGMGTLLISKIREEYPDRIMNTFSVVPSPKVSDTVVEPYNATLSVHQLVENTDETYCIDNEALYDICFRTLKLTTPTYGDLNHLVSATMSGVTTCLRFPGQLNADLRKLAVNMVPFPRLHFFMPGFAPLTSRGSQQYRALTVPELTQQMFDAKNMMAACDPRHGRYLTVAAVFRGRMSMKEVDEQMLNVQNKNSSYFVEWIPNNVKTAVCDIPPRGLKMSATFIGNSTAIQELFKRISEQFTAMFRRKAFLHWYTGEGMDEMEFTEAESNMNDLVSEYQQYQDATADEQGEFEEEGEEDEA
row,pIC50,SMILES
1,7.14,"Cc1cc(Nc2ncnc3cc([S@](=N)(=O)C4CC4)cc(N4CCC5(CC4)CC5)c23)cc(N2CCC(F)(F)CC2)c1 (single isomer, unassigned) [Example 102-1]"
2,6.58,"Cc1cc(Nc2ncnc3cc([S@@](=N)(=O)C4CC4)cc(N4CCC5(CC4)CC5)c23)cc(N2CCC(F)(F)CC2)c1 (single isomer, unassigned) [Example 102-2]"
3,7.31,"Cc1cc(Nc2ncnc3cc(NS(=O)(=O)CCO)cc(N4CCC5(CC4)CC5)c23)cc(N2CCC(F)(F)CC2)c1 [Example 100, N-(4-((3-(4,4-Difluoropiperidin-1-yl)-5-methylphenyl)amino)-5-(6-azaspiro[2.5]octan-6-yl)quinazolin-7-yl)-2-hydroxyethane-1-sulfonamide]"
4,6.02,"Cc1cc(Nc2nc(C)nc3cc(NS(=O)(=O)CCO)cc(N4CCC5(CC4)CC5)c23)cc(N2CCC(F)(F)CC2)c1 [Example 100-1, N-(4-((3-(4,4-Difluoropiperidin-1-yl)-5-methylphenyl)amino)-2-methyl-5-(6-azaspiro[2.5]octan-6-yl)quinazolin-7-yl)-2-hydroxyethane-1-sulfonamide]"
5,6.03,"Cc1cc(Nc2ncnc3cc(S(C)(=O)=O)cc(N4CCC5(CC4)CC5)c23)cc(N2CCC(F)(F)CC2)c1 [Example 101, N-(3-(4,4-Difluoropiperidin-1-yl)-5-methylphenyl)-7-(methylsulfonyl)-5-(6-azaspiro[2.5]octan-6-yl)quinazolin-4-amine]"
6,5.48,"Cc1cc(Nc2ncnc3cccc(N4CCC5(CC4)CC5)c23)cc(N2CCC(F)(F)CC2)c1 [Example 101-1, N-(3-(4,4-Difluoropiperidin-1-yl)-5-methylphenyl)-5-(6-azaspiro[2.5]octan-6-yl)quinazolin-4-amine]"
7,6.76,"Cc1cc(Nc2ncnc3cc(NS(=O)(=O)CCO)cc(N4CCC5(CC4)CC5)c23)cc(OCCC(F)(F)F)c1 [Example 103, 2-Hydroxy-N-(4-((3-methyl-5-(3,3,3-trifluoropropoxy)phenyl)amino)-5-(6-azaspiro[2.5]octan-6-yl)quinazolin-7-yl)ethane-1-sulfonamide]"
8,6.39,"Cc1cc(C)cc(Nc2ncnc3cc(NS(=O)(=O)CCO)cc(N4CCC5(CC4)CC5)c23)c1 [Example 103-1, N-(4-((3,5-Dimethylphenyl)amino)-5-(6-azaspiro[2.5]octan-6-yl)quinazolin-7-yl)-2-hydroxyethane-1-sulfonamide]"
9,7.21,"O=S(=O)(CCO)Nc1cc(N2CCC3(CC2)CC3)c2c(Nc3cccc(OCCC(F)(F)F)c3)ncnc2c1 [Example 103-2, N-(5-(6-Azaspiro[2.5]octan-6-yl)-4-((3-(3,3,3-trifluoropropoxy)phenyl)amino)quinazolin-7-yl)-2-hydroxyethane-1-sulfonamide]"
10,6.89,"Cc1cc(Nc2ncnc3cc(NS(=O)(=O)CCO)cc(N4CCC5(CC4)CC5)c23)nc(N2CCC(F)(F)CC2)n1 [Example 104, N-(4-((2-(4,4-Difluoropiperidin-1-yl)-6-methylpyrimidin-4-yl)amino)-5-(6-azaspiro[2.5]octan-6-yl)quinazolin-7-yl)-2-hydroxyethane-1-sulfonamide]"
11,7.09,"Cc1cc(Nc2ncnc3cc(NS(=O)(=O)CCO)cc(N4CCC5(CC4)CC5)c23)cc(N2CCC(F)(F)CC2)n1 [Example 105, N-(4-((2-(4,4-Difluoropiperidin-1-yl)-6-methylpyridin-4-yl)amino)-5-(6-azaspiro[2.5]octan-6-yl)quinazolin-7-yl)-2-hydroxyethane-1-sulfonamide]"
12,7.11,"Cc1cc(Nc2ncnc3cc(NS(=O)(=O)CCO)cc(N4CCC5(CC4)CC5)c23)nc(N2CCC(F)(F)CC2)c1 [Example 105-1, N-(4-((6-(4,4-Difluoropiperidin-1-yl)-4-methylpyridin-2-yl)amino)-5-(6-azaspiro[2.5]octan-6-yl)quinazolin-7-yl)-2-hydroxyethane-1-sulfonamide]"
13,5.55,"Cc1cc(Oc2ncnc3cc(NS(=O)(=O)CCO)cc(N4CCC5(CC4)CC5)c23)cc(N2CCC(F)(F)CC2)c1 [Example 105-2, N-(4-(3-(4,4-Difluoropiperidin-1-yl)-5-methylphenoxy)-5-(6-azaspiro[2.5]octan-6-yl)quinazolin-7-yl)-2-hydroxyethane-1-sulfonamide]"
14,7.60,"Cc1cc(Nc2nncc3cc(NS(=O)(=O)CCO)cc(N4CCC5(CC4)CC5)c23)cc(N2CCC(F)(F)CC2)c1 [Example 106, N-(1-((3-(4,4-Difluoropiperidin-1-yl)-5-methylphenyl)amino)-8-(6-azaspiro[2.5]octan-6-yl)phthalazin-6-yl)-2-hydroxyethane-1-sulfonamide]"
